Test results reported in PubChem BioAssay AID179 (DTP/NCI, 2004).
Active and inactive are the calls of the source.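 Rule for the calls: active = compounds giving half or more protection of infected cells from virus-caused growth loss, again on retest; inactive = the rest.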

Tested on: CEM cells HIV-1 protection, formazan growth assay
Experiment: NCI AIDS Antiviral Assay
Details: for IC50: measured here: growth of uninfected CEM cells
In short: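 CEM (human) cells, HIV-1 infected vs uninfected, 5-point dosing, formazan growth read-out. Retest threshold 50% protection.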

SMILES | EC50 [µM] | IC50 [µM] | outcome
CCCCCCCCCCC[N+]1(Cc2ccccc2)CC2CCN(Cc3ccccc3)CC2C1 (centres undefined) | > 2 | 0.234 | –
NC(=S)C1=C(N)Oc2c(c(=O)oc3ccccc23)C1c1ccc(Br)cc1 (centres undefined) | > 200 | 126 | –
CCCCN=C(c1ccccc1)N1CCOCC1 | > 200 | > 200 | –
Cc1ccc([P+](Cc2ccccc2)(c2ccc(C)cc2)c2ccc(C)cc2)cc1 | > 200 | 0.851 | –
COC(=O)C1C(O)CCC2CN3CCc4c([nH]c5ccccc45)C3CC21 (centres undefined) | > 200 | 70.8 | –
O=C1NC(=O)C(C(=O)C(=O)Nc2cc(Cl)ccc2Cl)C(=O)N1 | > 380 | 302 | –
CS(=O)(=O)c1ccc(C(=O)O[C@@H]2C(=O)N3CC[C@H]4OC(O)[C@@H]2[C@H]43)cc1 (some centres undefined) | > 200 | > 200 | –
CC1=NN(c2ccccc2)C(=O)C1N=Nc1ccc(Br)c(C)c1 (centres undefined) | – | – | inactive
COC(=O)C(=O)C(CC(=O)Nc1cccc(C(F)(F)F)c1)C(=O)OC (centres undefined) | > 14.5 | > 14.5 | –
Cc1ccccc1OCC(COC(=O)Nc1ccccc1)OC(=O)Nc1ccccc1 (centres undefined) | > 32.4 | > 32.4 | –
C/C=C/C(=O)[C@@H](O)C(C)C | – | – | inactive
COC1=NN2C(OC)(c3ccccc3)c3c(-c4ccccc4)sc(-c4ccccc4)c3C2(c2ccccc2)S1 (centres undefined) | – | – | inactive
CC1CN2CC(C)OB(O1)OC(C)C2 (centres undefined) | – | – | inactive
Cc1cn(C2CC3C(COC(CC[Se]c4ccccc4)N3O)O2)c(=O)[nH]c1=O (centres undefined) | 24 | 158 | –
N#Cc1ccc(C(=O)/C=C/c2ccc(O)c(O)c2)cc1 | > 200 | 10.2 | –
N#C/C(=C\c1ccc([N+](=O)[O-])cc1)c1ccccc1 | > 11 | > 11 | –
N#CC1(C#N)[C@@H]2CCC=C(Sc3ccccc3)[C@@H]21 | > 200 | 9.12 | –
COc1ccc(N(CN2C(=O)CCC2OC)C(C)=O)cc1 (centres undefined) | – | – | inactive
CC(C)N(C(=O)c1ccc(NCc2cc(O)ccc2O)cc1)C(C)C | > 200 | 12.6 | –
CC(=O)OC12c3ccccc3-c3ccccc3C1C1C(=O)OC(=O)C12 (centres undefined) | > 282 | > 282 | –
Cc1cc(-n2nnc(C(=O)O)c2-c2ccccc2)c2ccc(Cl)cc2n1 | > 200 | > 200 | –
CC(=O)c1ccc2c(c1)NC(=O)CC(C)N2 (centres undefined) | > 200 | > 200 | –
COC(=O)C1=C(C(=O)OC)C(Cc2ccccc2)(OO)OC1=O (centres undefined) | > 200 | 0.955 | –

SMILES | EC50 [µM] | IC50 [µM] | outcome
C/C(=N/NC(=S)Nc1ccc(C)cc1)c1ccccn1 | > 0.2 | 0.0794 | –
O=C(O)CCc1ccc2c(c1)CC1(Cc3ccccc3C1)C2 | > 200 | 102 | –
CCCCCCCCCCCCCCCCCC(=O)NCC(COP(=O)([O-])OCC[N+](C)(C)C)OC (centres undefined) | – | – | inactive
Cc1cn(C2CC([Se]c3ccccc3)C(CO)O2)c(=O)[nH]c1=O (centres undefined) | > 200 | 95.5 | –
COc1cc(OC)c2c(=O)c(OC)c(-c3ccc4c(c3)OCO4)oc2c1 | > 200 | > 200 | –
Cc1cc(=O)[nH]c(=S)n1-c1nc2ccccc2o1 | > 115 | > 115 | –
CN1CCN(CCCN2c3ccccc3Sc3ccccc32)CC1 | > 741 | 33.1 | –
CNC(=O)c1cc2nc3ccccc3c(=O)n2c2ccccc12 | > 100 | > 100 | –
CC(CCC/C=C/CCCN(C)C(=N)N)CC(C)C1OC(=O)C(C)C(O)/C=C/C(C)C(O)C(C)C(O)C(C)C(O)CCCC(O)CC2(O)OC(CC(OC(=O)CC(=O)O)CC(O)CC(O)C(C)C(O)/C=C/C=C/C1C)CC(O)C2O (centres undefined) | – | – | inactive
CSC1=C(c2ccc(Cl)cc2)SC(N2CCCCC2)N1c1ccc([N+](=O)[O-])cc1 (centres undefined) | > 200 | 97.7 | –
O=CC(O)C(O)C(O)C(O)COP(=O)(O)Cc1ccccc1 (centres undefined) | > 200 | > 200 | –
COC(=O)CCn1c(N)nc2c1c(=O)n(C)c(=O)n2C | > 468 | > 468 | –
COc1cc2c(cc1OC)C(=O)c1nccc3ccc(OC)c(c13)O2 | > 53.7 | 43.7 | –
Cc1ccc(C(=O)Nc2ccc(S(=O)(=O)O)c3cc(S(=O)(=O)O)cc(S(=O)(=O)O)c23)cc1N | > 200 | > 200 | –
CCOP(=O)(OCC)C(NC(=O)OCC(Cl)(Cl)Cl)n1nnc(C(=O)OC)c1C(=O)OC (centres undefined) | > 200 | > 200 | –
COC(=O)/C=C(/C(=O)OC)C1(C)c2cc(C(=O)OC)c(C(=O)OC)c(N)c2C(=N)N1c1ccccc1 (centres undefined) | – | – | inactive
CC(=O)Nc1ccc(-c2nnc(SCC(=O)Nc3ccccc3C)o2)cc1 | > 67.6 | 61.7 | –
N#CCC(=O)NCCc1c[nH]c2ccccc12 | > 200 | > 200 | –
CC(C)=CCCC1(C)C=Cc2c(cc(O)c3c(=O)c4cccc(O)c4oc23)O1 (centres undefined) | > 200 | 33.9 | –
COc1ccc(CCNC(=O)CCc2ccccc2CO)cc1OC | > 200 | > 200 | –
CCCCC1(NN=C2CCCCC2)C(=O)N(c2ccccc2)N(c2ccccc2)C1=O | > 200 | 102 | –
O=[N+]([O-])c1ccc(C(Cl)S(=O)(=O)c2ccccc2)cc1 (centres undefined) | > 83.2 | 4.79 | –
Cc1ccc(N2C(=O)C=C(C3=C(O)C(=O)N(c4ccc(C)cc4)C3=O)C2=O)cc1 | 135 | > 200 | –
